Laboratory results as given in patent US20170363632A1, “Biomarker Kit for Metastatic Breast Cancer Prognosis and Uses Thereof” (University of Maryland, Baltimore, priority 2016, published 2017).
Entries after “also recorded” stand apart in the source; their conditions may differ.

Tests used:
[1] = test system: PI3K pathway (phosphorylation levels of AKT) in obscurin-knockdown MCF10A cells; experiment: Western blot of AKT phosphorylation after PI3K inhibitor treatment; assay type: cell-based
Experimental: (§1) Cell lysates were prepared in radioimmuno-precipitation assay (RIPA) buffer supplemented with cocktails of protease inhibitors (Roche, Mannheim, Germany), and phosphatase inhibitors ([…], 100 mM Sodium Flouride, 115 mM Sodium Molybdate, 100 mM Sodium Orthovanadate, 400 mM Sodium Tartrate Dihydrate, 100 mM β-Glycerophosphate, 100 mM Sodium Pyrophosphate, and 10 mM EGTA). Protein lysates were electrophoresed on SDS-NuPAGE gel (Thermo Fisher Scientific, Waltham, Mass.), transferred to nitrocellulose membranes, and probed with primary antibodies as specified in the text, and the appropriate […] secondary antibodies (Jackson ImmunoResearch Laboratories). Immunoreactive bands were visualized using AMERSHAM ECL prime western blotting detection reagent (GE Healthcare Life Sciences), and densitometry was performed with Image J software. Treatment of cells followed by lysate preparation and immunoblotting analysis was repeated at least three independent times.
(§2) To verify the effectiveness of the two inhibitors in suppressing the PI3K pathway, whether the phosphorylation levels of AKT were reduced following treatment was examined. […] Whether inhibition of PI3K reverses epithelial to mesenchymal transition in obscurin-knockdown cells was evaluated.

[2] = test system: obscurin-knockdown MCF10A cells; experiment: Western blot of epithelial and mesenchymal (EMT) proteins after PI3K inhibitor treatment; assay type: cell-based
Experimental: as §1, §2

[3] = test system: obscurin-knockdown MCF10A cells; experiment: Mammosphere culture in ultra-low attachment conditions; assay type: cell-based; set-up: mammosphere formation: dose or concentration left out as unconfirmed; settings: for reduction in mammosphere formation: spheres ≧100 μm
Experimental: Single MCF10A cells stably transduced with obscurin shRNA were plated in ultralow attachment plates (Corning, Lowell, Mass., USA) at a density of 10,000 cells/mL in 2 mL serum-free growth media (DMEM/F12 with GlutaMAX™), supplemented with insulin (10 μg/mL), hydrocortisone (0.5 μg/mL), cholera toxin (100 ng/mL), epidermal growth factor (20 ng/mL), 1% penicillin-streptomycin and puromycin (1.5 μg/mL). Twenty-four hours following initial plating, cell cultures were supplemented with 2 mL serum-free growth media that contained the indicated concentration of LY294002, BKM120, or DMSO vehicle control every day for 10 days at which time point spheres were measured and those ≧100 μm were counted as tumor spheres.

[4] = test system: adherent MCF10A obscurin-knockdown or scramble control cells; experiment: Cell viability, AlamarBlue assay; assay type: cell-based; settings: different concentrations of BKM120, 24 h
Experimental: (§3) Cell viability of MCF10A obscurin-knockdown and scramble control cells treated with the specified concentrations of LY294002 and BKM120 inhibitors or vehicle DMSO for 24 h was measured using the AlamarBlue assay (Life Technologies) (9). In brief, the AlamarBlue reagent was added to the cell culture at 10% v/v and incubated for 16 h at 37° C., 5% CO2. The percentage (%) of AlamarBlue reduction was determined by measuring absorbance at 550 and 620 nm. Data are presented as the percentage of AlamarBlue reduced per number of cells.

[5] = test system: obscurin-knockdown MCF10A cells; experiment: Wound healing assay; assay type: cell-based; settings: DMSO vehicle ≧20%
Experimental: Wound healing was measured by growing confluent MCF10A cell monolayers stably expressing obscurin shRNA in six-well tissue culture dishes (Corning). A scrape was made through the monolayer with a sterile plastic pipette tip and fresh media containing LY294002, BKM120, or DMSO vehicle control was added at the indicated concentrations. Images were taken with an inverted microscope (10× objective) at time 0 h and after a 6 h incubation period at 37° C., 5% CO2. Migration was expressed as the average of the difference between the measurement at time zero and 6 h obtained from 3 independent experiments.

[6] = test system: obscurin-knockdown MCF10A cells; experiment: Microchannel single cell migration; assay type: cell-based; set-up: dose or concentration left out as unconfirmed
Experimental: The microchannel device was fabricated by standard lithography and coated with 20 μg/mL collagen type I (BD Biosciences, San Jose, Calif.) (12-16). Cells were trypsinized, resuspended in serum-containing media to neutralize the trypsin, and subsequently washed in serum-free media. A suspension of 5×10^4 cells was added to the inlet port, and cells were transported along the seeding channel by pressure-driven flow. Within 5 min, the cell suspension was removed and replaced with 100 μL of serum-free media containing the specified concentrations of LY294002, BKM120, or DMSO vehicle control. Serum-containing media with the indicated concentrations of LY294002, BKM120, or DMSO was added to the top-most inlet port, thus forming a chemoattractant gradient. Chambers were placed in an enclosed, humidified microscope stage at 5% CO2 and 37° C. (TIZ, Tokai Hit Co., Japan or Okolab, Italy). […] Instantaneous cell velocity was calculated by dividing each interval displacement by the time interval (20 min), and the mean velocity for a given cell was computed by averaging instantaneous velocities for all time intervals. Chemotactic index was calculated by dividing the end-to-end displacement by the total path length of the cell. […]

[7] = test system: obscurin-knockdown MCF10A cells; experiment: Matrigel invasion assay; assay type: cell-based; settings: dose-dependent, 16 h
Experimental: Invasion was measured by adding 250,000 cells suspended in 0.5 mL growth media containing the specified concentration of LY294002, BKM120, or DMSO vehicle control to the upper chamber of a Matrigel-coated invasion chamber (BD Biosciences, San Jose, Calif.). The lower chamber contained growth media supplemented with 10% FBS. The inserts were incubated at 37° C., 5% CO2 for 16 h. At the end of the 16 h incubation period, the cells that had invaded in the lower chamber were fixed and stained with 0.5% crystal violet in 20% methanol. The number of invaded cells was quantified by counting at least 6 random fields from 3 independent experiments under an inverted light microscope (Olympus IX51) with a 10× objective.

[8] = test system: MCF10A obscurin-knockdown cells; experiment: Bright-field microscopy of cell morphology and cell-cell junctions; assay type: cell-based; settings: 1 mM BKM120
Description: Taken together, these findings indicate that blockade of the PI3K pathway in obscurin-depleted breast epithelial cells via pharmacological treatment or molecular means effectively reverses epithelial to mesenchymal transition.

[9] = Cell viability, AlamarBlue assay; assay type: cell-based; settings: human, adherent MCF10A obscurin-knockdown or scramble control cells; 25 µM LY294002, 24 h; read-out: decrease in cell viability (reduction of AlamarBlue)
Experimental: as §3

[10] = target: T1, control GST-protein (UniProt P08515 1-218 = GST); experiment: GST pull-down on glutathione-Sepharose beads, immunoblot with His-tag antibody
T1 construct: Negative control in the GST pull-down; also called GST-alone
Experimental: GST-pull down assays were performed (19, 20). Equivalent amounts of control GST-protein and GST-obscurin-PH were bound to glutathione-Sepharose beads and incubated with 3 mg/mL of His-tagged PI3K/p85-SH3 protein overnight at 4° C. in pull-down buffer (50 mM Tris, pH 7.5, 120 mM NaCl, 10 mM NaN3, 2 mM DTT, and 0.5% Tween). At the end of the incubation period, beads were washed five times with wash buffer (PBS with 10 mM NaN3 and 0.1% Tween), and bound proteins were eluted with 2× LDS buffer (Invitrogen), followed by boiling at 95° C. for 10 min and separation on a 4-12% bis-Tris gel. A His6-antibody (sc-803, Santa Cruz Biotechnology) was used for detection of immunoreactive bands with the Tropix chemiluminescence detection kit (Applied Biosystems).

[11] = target: T2, GST-obscurin-PH (human, UniProt Q5VST9 5895-6004); experiment: SPR, Biacore 3000; GST-obscurin-PH immobilized on CM5 chip, HIS-PI3K/p85-SH3 as analyte at 8-250 nM; 1:1 Langmuir model
T2 construct: domain: Pleckstrin Homology (PH) domain; Expressed in bacteria, about 37 kDa; also called GST-obscurin-PH domain; recombinant obscurin-PH domain fused to GST; not shown: glutathione-S-transferase (GST) tag encoded by the PGEX vector (GE Healthcare)
T2 sequence (looked up): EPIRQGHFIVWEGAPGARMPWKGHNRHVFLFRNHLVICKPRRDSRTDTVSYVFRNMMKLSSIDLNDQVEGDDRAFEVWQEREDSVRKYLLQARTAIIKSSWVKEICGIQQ
Experimental: Surface plasmon resonance was performed using a BiaCore 3000 instrument as described (6, 19, 21). In particular, the GST-obscurin-PH domain was used as ligand and was immobilized on a carboxymethyl-dextran sensor (CM5) chip, while the HIS-PI3K-p85/SH3 domain was used as analyte at varying concentrations ranging from 8-250 nM. The flow rate for analyte injection was 20 μl/min. For each analyte concentration, association was measured for 180 sec and dissociation was measured over another 180 sec. Data were evaluated with the 1:1 Langmuir model and the Heterogeneous Ligand model (BIAevaluation Software 3.1, Biacore). The association (kₐ, M⁻¹ s⁻¹) and dissociation (kd, s⁻¹) rate constants as well as the association (KA, M⁻¹) and dissociation (KD, M) equilibrium constants were determined.

T1 sequence (P08515 whole entry): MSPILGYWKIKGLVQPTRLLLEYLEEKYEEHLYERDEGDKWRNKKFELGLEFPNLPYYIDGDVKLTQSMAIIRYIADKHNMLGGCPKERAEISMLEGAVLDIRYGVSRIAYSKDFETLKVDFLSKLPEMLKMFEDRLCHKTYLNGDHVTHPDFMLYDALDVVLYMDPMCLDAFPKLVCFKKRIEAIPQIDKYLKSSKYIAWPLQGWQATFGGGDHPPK

Question: Which “phosphorylation level of AKT at serine-473 compared to vehicle DMSO” value ([1]; 1 μM BKM120) does the source give for `Nc1cc(C(F)(F)F)c(-c2cc(N3CCOCC3)nc(N3CCOCC3)n2)cn1` [BKM120] here?
Answer: Its value is 0.3 fold.

Question: And the “phosphorylation level of AKT at threonine-308 compared to vehicle DMSO” value ([1]; 1 μM BKM120)?
Answer: The value was 0.1 fold.

Question: And the “expression level of E-cadherin (increase)” value ([2]; 1 μM BKM120)?
Answer: The value was 2.1 fold.

Question: What about the “expression level of N-cadherin (decrease)” value ([2]; 1 μM BKM120) of the same molecule?
Answer: The value was 0.5 fold.

Question: And the “expression level of Slug (decrease)” value ([2]; 1 μM BKM120)?
Answer: The value was 0.3 fold.

Question: What about the “expression level of Twist (decrease)” value ([2]; 1 μM BKM120) of the same molecule?
Answer: The value was 0.5 fold.

Question: What about the “expression level of β-catenin (increase)” value ([2]; 1 μM BKM120) of the same molecule?
Answer: The value was 5 fold.

Question: What about the “reduction in mammosphere formation” value ([3]; 0.1 mM BMK120, 10 days) of the same molecule?
Answer: The value was 18%.

Question: And the “reduction in mammosphere formation” value ([3]; 0.5 mM BMK120, 10 days)?
Answer: Its value is 89%.

Question: And the mammosphere formation ([3]; BKM120, 10 days)?
Answer: The mammosphere formation was “completely eliminated mammosphere formation”.

Question: And the “cell viability (reduction of AlamarBlue) versus vehicle DMSO” value [4]?
Answer: Its value is “No significant changes; also recorded: did not affect their survival and growth”.

Question: What about the wound healing ([5]; 1 mM BKM120, after 6 h) of the same molecule?
Answer: Its wound healing is ~6%.

Question: And the “migration speed compared to DMSO treated cells” value ([6]; microchannels 6, 10, 20 and 50 mm wide)?
Answer: The value was “significantly reduced migration”.

Question: And the “chemotactic index (CI) relative to vehicle control” value ([6]; statistically significant in narrow channels (6 mm))?
Answer: The value was “lower chemotactic index”.

Question: What about the “reduction in cell invasiveness relative to DMSO” value ([7]; BKM120 0-1 mM) of the same molecule?
Answer: Its value is 15-60%.

Question: What about the “cell morphology and cell-cell junction formation” value [8] of the same molecule?
Answer: The value was “(re)acquired an epithelial appearance and were able to form cell-cell junctions”.

Question: With `O=c1cc(N2CCOCC2)oc2c(-c3ccccc3)cccc12` [LY294002] as the molecule, how does the “phosphorylation level of AKT at serine-473 compared to vehicle DMSO” value ([1]; 25 μM LY294002) read?
Answer: Its value is 0.4 fold.

Question: And the “phosphorylation level of AKT at threonine-308 compared to vehicle DMSO” value ([1]; 25 μM LY294002)?
Answer: Its value is 0.4 fold.

Question: What about the “expression level of E-cadherin (increase)” value ([2]; 25 μM LY294002) of the same molecule?
Answer: The value was 1.8 fold.

Question: And the “expression level of N-cadherin (decrease)” value ([2]; 25 μM LY294002)?
Answer: Its value is 0.3 fold.

Question: And the “expression level of Slug (decrease)” value ([2]; 25 μM LY294002)?
Answer: The value was 0.6 fold.

Question: And the “expression level of Twist (decrease)” value ([2]; 25 μM LY294002)?
Answer: The value was 0.4 fold.

Question: And the “expression level of β-catenin (increase)” value ([2]; 25 μM LY294002)?
Answer: The value was 1.3 fold.

Question: What about the “reduction in mammosphere formation” value ([3]; 5 mM LY294002, 10 days) of the same molecule?
Answer: Its value is 36%.

Question: And the “reduction in mammosphere formation” value ([3]; 10 mM LY294002, 10 days)?
Answer: The value was 58%.

Question: What about the cytotoxicity at 24 h, 25 µM [9] of the same molecule?
Answer: The cytotoxicity at 24 h, 25 µM was ~5%.

Question: And the wound healing ([5]; 25 mM LY294002, after 6 h)?
Answer: The wound healing was ~6%.

Question: And the “reduction in cell invasiveness relative to DMSO” value ([7]; LY294002 0-25 mM)?
Answer: The value was 50-95%.

B1: HIS-PI3K/p85-SH3 (other, human, UniProt O00459 4-80, looked up)
chain: PEGFQYRALYPFRRERPEDLELLPGDVLVVSRAALQALGVAEGGERCPQSVGWMPGLNERTRQRGDFPGTYVEFLGP
notes: domain: Src Homology 3 (SH3) domain; Expressed in bacteria, about 10 kDa; also called His-tagged PI3K/p85-SH3 protein; HIS-PI3K-p85/SH3 domain; not shown: His tag and vector-encoded residues of pET-30a(+)
Question: What does the source list for B1?
Answer: binding result [10]: no binding (tested: 3 mg/mL of His-tagged PI3K/p85-SH3); Kd [11]: ~50 nM
